Test system in one data set: not listed separately
The data set can be described thus: pKa was determined. Type of data set: physicochemical.
Conditions: not given
With `CC(C)(N)C(=O)N[C@H](Cc1c[nH]c2ccccc12)C(=O)N1CCC2(CCc3ccccc32)CC1` [L-162752], the pKa was 7.9.
The same measure, in the same setting: the figure for `NC1(C(=O)N[C@H](Cc2c[nH]c3ccccc23)C(=O)N2CCC3(CCc4ccccc43)CC2)CC1` is 5.9.

For another data set, the species on record is Rattus norvegicus. The data set can be described thus: In vitro for growth hormone release by using rat pituitary cell assay. Type of data set: functional. To be noted: Pituitary gland cell.
`CC(C)(N)C(=O)N[C@H](Cc1c[nH]c2ccccc12)C(=O)N1CCC2(CCc3ccccc32)CC1` [L-162752]: the EC50 is 14 nM.
As to `C[C@H](N)C(=O)N[C@H](Cc1c[nH]c2ccccc12)C(=O)N1CCC2(CCc3ccccc32)CC1`, the half-maximal effective concentration (EC50) came to 840 nM.
Same read-out and setting: for `C[C@H](O)CNC(C)(C)CC(=O)N[C@H](Cc1c[nH]c2ccccc12)C(=O)N1CCC2(CCc3ccccc32)CC1` the value was 2.6 nM; for `NC1(C(=O)N[C@H](Cc2c[nH]c3ccccc23)C(=O)N2CCC3(CCc4ccccc43)CC2)CCCC1`, 2600 nM.
Consider `O=C(N[C@H](Cc1c[nH]c2ccccc12)C(=O)N1CCC2(CCc3ccccc32)CC1)C1CCCCN1` (stereo partly specified), for which the midpoint of the response, the EC50, lay at 1900 nM. This EC50 and that of the molecule before are within 1.5-fold of each other.
In the case of `NC1(C(=O)N[C@H](Cc2c[nH]c3ccccc23)C(=O)N2CCC3(CCc4ccccc43)CC2)CC1`, the midpoint of the response, the EC50, lay at 2100 nM.
`CC(C)(N)CC(=O)N[C@@H]1CCc2ccccc2N(Cc2ccc(-c3ccccc3-c3nn[nH]n3)cc2)C1=O`: it took 60 nM to reach a half-maximal effect (EC50). Against the preceding molecule, the EC50 is about 35-fold lower.
`NCC(=O)N[C@H](Cc1c[nH]c2ccccc12)C(=O)N1CCC2(CCc3ccccc32)CC1` displayed an EC50 of 2000 nM. Against the preceding molecule, the EC50 is about 33-fold higher.
Same read-out and setting: for `C[C@](N)(CO)C(=O)N[C@H](Cc1c[nH]c2ccccc12)C(=O)N1CCC2(CCc3ccccc32)CC1` the value was 600 nM; for `CC(C)(N)CC(=O)N[C@H](Cc1c[nH]c2ccccc12)C(=O)N1CCC2(CCc3ccccc32)CC1`, 76 nM; for `C[C@@H](N)C(=O)N[C@H](Cc1c[nH]c2ccccc12)C(=O)N1CCC2(CCc3ccccc32)CC1`, 1000 nM.
Still for that read-out and setting: for `C[C@H](O)CNC(C)(C)C(=O)N[C@H](Cc1c[nH]c2ccccc12)C(=O)N1CCC2(CCc3ccccc32)CC1` the value was 700 nM.
`CC(C)(CC(=O)N[C@H](Cc1c[nH]c2ccccc12)C(=O)N1CCC2(CCc3ccccc32)CC1)NC[C@H](O)CO` yielded an EC50 of 16 nM.
The molecule `C[C@@](N)(CO)C(=O)N[C@H](Cc1c[nH]c2ccccc12)C(=O)N1CCC2(CCc3ccccc32)CC1` had an EC50 of 48 nM.
Molecule `CC(C)(N)C(=O)N[C@@H](Cc1c[nH]c2ccccc12)C(=O)N1CCC2(CCc3ccccc32)CC1` showed an EC50 of 10000 nM.
`O=C(N[C@H](Cc1c[nH]c2ccccc12)C(=O)N1CCC2(CCc3ccccc32)CC1)C1CCNCC1` gave an EC50 of 100 nM.
The same measure, in the same setting: the figure for `O=C(NC(Cc1c[nH]c2ccccc12)C(=O)N1CCC2(CCc3ccccc32)CC1)NC1CN2CCC1CC2` (stereo unspecified) [SPIROPIPERIDINE] is 50 nM; for `O=C(N[C@H](Cc1c[nH]c2ccccc12)C(=O)N1CCC2(CCc3ccccc32)CC1)C1CCCNC1` (stereo partly specified) it is 90 nM.

For a further data set, the species on record is Rattus norvegicus. Description: Compound was tested in vitro for growth hormone release by using rat pituitary cell assay. Type of data set: functional, Pituitary gland cell.
Conditions: not given
Regarding `NC1(C(=O)N[C@H](Cc2c[nH]c3ccccc23)C(=O)N2CCC3(CCc4ccccc43)CC2)CCCCC1`, the Stimulation was 92%.

The pKa is the negative logarithm of the acid dissociation constant. A higher pKa goes with a group that holds its proton tightly. As usually defined, the EC50 is the concentration needed to bring the measured effect to its halfway point. A higher EC50 goes with lower potency in that assay.
